Conditions: in vivo

Substance | concentration range in urine | median concentration in urine | share of ΣAs in urine
Arsenic acid [As^V] | 0 to 12.1 ng/mL | 1.12 µg/L | 
Arsenious acid [As^III] | 2.13 to 101 ng/mL | 13.8 µg/L | 3.8-36.9%
